Assays:
Format in all cases: biochemical
[1] = molecular target: T1, Fyn (Homo sapiens, UniProt P06241); experiment: Kinase inhibition assay (33P transfer), Fyn; details: read-out: Fyn-1
T1 construct: Kinases are expressed as either kinase domains or full length constructs; made in house
In short: (§1)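 Recombinant kinase domains or full-length GST- or His-tagged constructs, from E. coli or baculovirus/High Five cells, sometimes with regulatory polypeptides. Transfer of 33P from ATP to plate-bound poly(Glu,Tyr) 4:1 or poly(Arg,Ser) 3:1 counted by liquid scintillation after phosphoric acid wash; IC50 is the concentration halving incorporation.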

[2] = molecular target: T2, Itk (Homo sapiens, UniProt Q08881); experiment: Kinase inhibition assay (33P transfer), Itk; details: Table 3; read-out: Itk-1
T2 construct: Kinases are expressed as either kinase domains or full length constructs; made in house
T2 sequence (Q08881 1-620): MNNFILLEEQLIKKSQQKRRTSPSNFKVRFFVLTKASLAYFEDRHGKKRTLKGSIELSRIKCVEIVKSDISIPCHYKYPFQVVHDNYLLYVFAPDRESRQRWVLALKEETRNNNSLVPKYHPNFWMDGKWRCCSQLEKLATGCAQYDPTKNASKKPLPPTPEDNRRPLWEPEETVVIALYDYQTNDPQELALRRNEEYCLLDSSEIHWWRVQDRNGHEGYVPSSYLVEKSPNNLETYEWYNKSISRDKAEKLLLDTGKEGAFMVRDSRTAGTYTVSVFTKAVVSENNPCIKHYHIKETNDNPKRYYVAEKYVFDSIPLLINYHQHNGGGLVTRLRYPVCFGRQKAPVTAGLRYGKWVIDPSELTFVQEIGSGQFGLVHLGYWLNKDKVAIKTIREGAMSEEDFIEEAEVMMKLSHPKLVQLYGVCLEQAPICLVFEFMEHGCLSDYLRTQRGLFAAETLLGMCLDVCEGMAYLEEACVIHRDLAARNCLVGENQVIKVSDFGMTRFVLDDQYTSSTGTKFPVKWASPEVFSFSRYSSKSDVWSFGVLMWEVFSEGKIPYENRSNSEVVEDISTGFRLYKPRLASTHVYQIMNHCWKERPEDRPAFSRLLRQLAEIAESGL
In short: as §1

[3] = molecular target: T3, ErbB4 (Homo sapiens, UniProt Q15303); experiment: Kinase inhibition assay (33P transfer), ErbB4; details: read-out: ErbB4-1
T3 construct: Kinases are expressed as either kinase domains or full length constructs; made in house
T3 sequence (Q15303 26-1308, species assumed): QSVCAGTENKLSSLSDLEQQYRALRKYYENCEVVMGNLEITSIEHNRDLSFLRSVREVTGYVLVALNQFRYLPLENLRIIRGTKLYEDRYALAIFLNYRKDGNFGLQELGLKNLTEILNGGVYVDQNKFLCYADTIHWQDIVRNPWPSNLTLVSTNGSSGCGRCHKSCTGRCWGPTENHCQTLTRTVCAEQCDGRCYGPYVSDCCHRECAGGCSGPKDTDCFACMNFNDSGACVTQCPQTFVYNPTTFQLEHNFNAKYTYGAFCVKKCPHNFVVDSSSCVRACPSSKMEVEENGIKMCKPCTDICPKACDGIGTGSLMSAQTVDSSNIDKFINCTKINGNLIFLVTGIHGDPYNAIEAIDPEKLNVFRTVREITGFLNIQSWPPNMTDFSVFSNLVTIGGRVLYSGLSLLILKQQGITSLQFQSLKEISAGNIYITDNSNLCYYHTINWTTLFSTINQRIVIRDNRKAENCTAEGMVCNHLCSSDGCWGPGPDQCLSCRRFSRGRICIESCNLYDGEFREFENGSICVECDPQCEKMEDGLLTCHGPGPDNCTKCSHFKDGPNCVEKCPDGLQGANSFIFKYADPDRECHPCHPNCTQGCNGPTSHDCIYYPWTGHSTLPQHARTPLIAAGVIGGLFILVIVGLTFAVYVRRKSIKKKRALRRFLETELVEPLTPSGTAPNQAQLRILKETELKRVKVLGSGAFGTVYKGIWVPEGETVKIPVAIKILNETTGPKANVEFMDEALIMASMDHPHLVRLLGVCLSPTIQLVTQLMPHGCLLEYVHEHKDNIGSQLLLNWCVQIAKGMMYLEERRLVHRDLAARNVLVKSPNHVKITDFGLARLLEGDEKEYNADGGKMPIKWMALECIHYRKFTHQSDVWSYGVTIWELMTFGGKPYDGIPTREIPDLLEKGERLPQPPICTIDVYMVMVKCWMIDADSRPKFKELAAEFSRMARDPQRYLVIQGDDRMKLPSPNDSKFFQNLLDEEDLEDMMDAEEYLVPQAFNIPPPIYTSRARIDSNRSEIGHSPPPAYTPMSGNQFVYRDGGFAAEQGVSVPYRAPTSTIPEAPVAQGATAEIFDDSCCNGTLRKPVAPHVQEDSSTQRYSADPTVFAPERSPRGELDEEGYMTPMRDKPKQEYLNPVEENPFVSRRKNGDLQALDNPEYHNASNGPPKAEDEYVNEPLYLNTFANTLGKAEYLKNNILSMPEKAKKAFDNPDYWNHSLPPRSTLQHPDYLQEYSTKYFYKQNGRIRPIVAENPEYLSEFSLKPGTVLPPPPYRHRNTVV

[4] = molecular target: T4, Src (Homo sapiens, UniProt P12931); experiment: Kinase inhibition assay (33P transfer), Src; details: Table 6, Src-1 kinase inhibition class
T4 construct: Kinases are expressed as either kinase domains or full length constructs; made in house
T4 sequence (P12931 whole entry, species assumed, the tested form may be a part): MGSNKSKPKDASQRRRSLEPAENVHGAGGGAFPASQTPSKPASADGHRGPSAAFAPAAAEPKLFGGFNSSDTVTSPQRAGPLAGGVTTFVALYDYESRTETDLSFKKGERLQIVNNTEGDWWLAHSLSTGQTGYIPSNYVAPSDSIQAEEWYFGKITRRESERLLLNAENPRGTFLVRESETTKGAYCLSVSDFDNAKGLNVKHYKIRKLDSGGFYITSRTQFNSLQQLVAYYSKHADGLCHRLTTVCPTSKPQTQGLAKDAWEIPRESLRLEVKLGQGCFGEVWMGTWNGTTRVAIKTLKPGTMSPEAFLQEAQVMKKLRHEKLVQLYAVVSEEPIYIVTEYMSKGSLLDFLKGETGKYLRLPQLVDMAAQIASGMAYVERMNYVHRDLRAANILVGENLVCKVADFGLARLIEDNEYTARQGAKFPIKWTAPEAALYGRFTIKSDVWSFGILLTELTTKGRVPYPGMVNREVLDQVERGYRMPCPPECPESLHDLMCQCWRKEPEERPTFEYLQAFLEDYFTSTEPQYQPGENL
In short: as §1

[5] = molecular target: T5, Lck (Homo sapiens, UniProt P06239); experiment: Kinase inhibition assay (33P transfer), Lck; details: Table 3; read-out: Lck-1
T5 construct: Kinases are expressed as either kinase domains or full length constructs; made in house
In short: (§2)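 Liquid scintillation counting of 33P on plate-bound synthetic substrates gives kinase activity. Plates are washed in 0.5% phosphoric acid first; kinases are tagged recombinant proteins from E. coli or baculovirus-infected High Five cells.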

[6] = molecular target: T6, AKT (Homo sapiens, UniProt Q9Y243); experiment: Kinase inhibition assay (33P transfer), AKT; details: Table 2, kinase inhibition class; read-out: AKT3-1
T6 construct: Kinases are expressed as either kinase domains or full length constructs; made in house
T6 sequence (Q9Y243 whole entry, the tested form may be a part): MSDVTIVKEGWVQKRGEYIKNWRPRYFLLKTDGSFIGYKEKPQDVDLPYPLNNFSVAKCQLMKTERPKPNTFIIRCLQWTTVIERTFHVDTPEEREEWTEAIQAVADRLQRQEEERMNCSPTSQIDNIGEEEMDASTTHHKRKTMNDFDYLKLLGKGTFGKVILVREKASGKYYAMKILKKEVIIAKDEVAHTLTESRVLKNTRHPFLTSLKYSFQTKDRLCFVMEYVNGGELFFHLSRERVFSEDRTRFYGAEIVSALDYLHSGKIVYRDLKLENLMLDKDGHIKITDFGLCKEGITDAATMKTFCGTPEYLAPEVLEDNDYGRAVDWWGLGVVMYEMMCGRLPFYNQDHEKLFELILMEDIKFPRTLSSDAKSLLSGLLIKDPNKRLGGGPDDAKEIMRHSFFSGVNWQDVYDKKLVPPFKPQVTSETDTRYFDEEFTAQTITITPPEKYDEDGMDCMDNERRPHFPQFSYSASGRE
In short: as §2

[7] = molecular target: T7, Flt-1 (Homo sapiens, UniProt P17948); experiment: Kinase inhibition assay (33P transfer), Flt-1
T7 construct: Kinases are expressed as either kinase domains or full length constructs; made in house
In short: as §1

[8] = molecular target: T8, IGFR-1 (Homo sapiens, UniProt P08069); experiment: Kinase inhibition assay (33P transfer), IGFR-1; details: Table 2, kinase inhibition class
T8 construct: Kinases are expressed as either kinase domains or full length constructs; made in house

[9] = molecular target: T9, PDGFRB (Homo sapiens, UniProt P09619); experiment: Kinase inhibition assay (33P transfer), PDGFRB; details: read-out: PDGFRB-1
T9 construct: Kinases are expressed as either kinase domains or full length constructs; made in house
T9 sequence (P09619 33-1106, species assumed): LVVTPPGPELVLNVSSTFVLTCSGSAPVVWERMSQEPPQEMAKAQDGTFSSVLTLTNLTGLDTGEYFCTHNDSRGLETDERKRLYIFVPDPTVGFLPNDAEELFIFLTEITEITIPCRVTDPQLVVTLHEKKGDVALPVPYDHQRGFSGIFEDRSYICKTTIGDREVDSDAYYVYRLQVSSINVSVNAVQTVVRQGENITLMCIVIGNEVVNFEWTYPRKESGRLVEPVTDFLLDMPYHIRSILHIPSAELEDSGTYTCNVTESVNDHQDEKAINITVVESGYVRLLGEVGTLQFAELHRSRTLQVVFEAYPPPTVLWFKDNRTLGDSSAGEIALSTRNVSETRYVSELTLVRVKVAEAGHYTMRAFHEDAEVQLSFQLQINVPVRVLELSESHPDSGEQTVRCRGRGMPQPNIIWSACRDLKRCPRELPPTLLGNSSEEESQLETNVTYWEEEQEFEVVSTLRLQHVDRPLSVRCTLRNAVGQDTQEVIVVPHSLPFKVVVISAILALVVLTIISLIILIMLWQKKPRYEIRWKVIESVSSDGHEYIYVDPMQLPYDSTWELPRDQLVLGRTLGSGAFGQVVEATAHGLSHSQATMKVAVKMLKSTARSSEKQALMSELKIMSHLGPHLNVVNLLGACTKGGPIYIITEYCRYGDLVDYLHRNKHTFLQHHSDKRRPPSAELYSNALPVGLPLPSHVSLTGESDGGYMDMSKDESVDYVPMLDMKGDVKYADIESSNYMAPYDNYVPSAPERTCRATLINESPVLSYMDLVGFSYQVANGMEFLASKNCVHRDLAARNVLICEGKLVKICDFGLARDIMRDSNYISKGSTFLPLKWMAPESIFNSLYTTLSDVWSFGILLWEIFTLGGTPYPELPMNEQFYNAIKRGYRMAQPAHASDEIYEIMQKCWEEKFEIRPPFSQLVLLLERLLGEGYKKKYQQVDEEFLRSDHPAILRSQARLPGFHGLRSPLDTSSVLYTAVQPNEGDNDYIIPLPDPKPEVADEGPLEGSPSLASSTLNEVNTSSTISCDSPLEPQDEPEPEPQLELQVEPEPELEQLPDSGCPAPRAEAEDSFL

[10] = molecular target: T10, EGFR (Homo sapiens, UniProt P00533); experiment: Kinase inhibition assay (33P transfer), EGFR; details: Table 2, kinase inhibition class; read-out: EGFR-1
T10 construct: Kinases are expressed as either kinase domains or full length constructs; made in house
T10 sequence (P00533 25-1210, species assumed): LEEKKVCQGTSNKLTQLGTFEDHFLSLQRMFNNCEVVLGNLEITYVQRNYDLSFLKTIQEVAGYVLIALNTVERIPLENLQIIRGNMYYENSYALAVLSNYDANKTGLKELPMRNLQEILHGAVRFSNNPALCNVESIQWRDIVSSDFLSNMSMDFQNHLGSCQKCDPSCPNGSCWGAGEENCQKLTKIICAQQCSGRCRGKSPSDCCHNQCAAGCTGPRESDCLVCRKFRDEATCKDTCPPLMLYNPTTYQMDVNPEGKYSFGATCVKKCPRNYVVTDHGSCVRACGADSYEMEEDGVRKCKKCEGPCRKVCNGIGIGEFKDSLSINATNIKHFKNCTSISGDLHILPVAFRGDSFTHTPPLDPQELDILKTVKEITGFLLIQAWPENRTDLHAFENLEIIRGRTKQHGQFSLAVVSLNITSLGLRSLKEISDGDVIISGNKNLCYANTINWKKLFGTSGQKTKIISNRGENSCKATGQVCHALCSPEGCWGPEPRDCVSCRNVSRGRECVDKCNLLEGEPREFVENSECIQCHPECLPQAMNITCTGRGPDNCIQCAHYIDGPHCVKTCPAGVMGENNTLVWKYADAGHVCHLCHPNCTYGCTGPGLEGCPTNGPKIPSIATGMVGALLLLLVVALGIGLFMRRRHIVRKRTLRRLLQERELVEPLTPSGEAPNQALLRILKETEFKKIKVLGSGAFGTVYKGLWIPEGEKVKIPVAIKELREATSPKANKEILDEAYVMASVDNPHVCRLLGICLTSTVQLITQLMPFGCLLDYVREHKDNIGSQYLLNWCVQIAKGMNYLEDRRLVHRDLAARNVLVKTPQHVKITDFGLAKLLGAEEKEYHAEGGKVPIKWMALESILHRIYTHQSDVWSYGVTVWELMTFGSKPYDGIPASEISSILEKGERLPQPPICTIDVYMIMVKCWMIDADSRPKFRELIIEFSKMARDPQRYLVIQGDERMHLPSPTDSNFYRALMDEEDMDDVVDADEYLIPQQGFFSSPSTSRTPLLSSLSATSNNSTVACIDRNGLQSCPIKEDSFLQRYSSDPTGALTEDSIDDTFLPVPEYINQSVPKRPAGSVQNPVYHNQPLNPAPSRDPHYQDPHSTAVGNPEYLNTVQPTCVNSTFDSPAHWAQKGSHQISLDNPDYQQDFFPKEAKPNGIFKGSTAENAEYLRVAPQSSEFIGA
In short: as §1

T1 sequence (P06241 whole entry, species assumed, the tested form may be a part): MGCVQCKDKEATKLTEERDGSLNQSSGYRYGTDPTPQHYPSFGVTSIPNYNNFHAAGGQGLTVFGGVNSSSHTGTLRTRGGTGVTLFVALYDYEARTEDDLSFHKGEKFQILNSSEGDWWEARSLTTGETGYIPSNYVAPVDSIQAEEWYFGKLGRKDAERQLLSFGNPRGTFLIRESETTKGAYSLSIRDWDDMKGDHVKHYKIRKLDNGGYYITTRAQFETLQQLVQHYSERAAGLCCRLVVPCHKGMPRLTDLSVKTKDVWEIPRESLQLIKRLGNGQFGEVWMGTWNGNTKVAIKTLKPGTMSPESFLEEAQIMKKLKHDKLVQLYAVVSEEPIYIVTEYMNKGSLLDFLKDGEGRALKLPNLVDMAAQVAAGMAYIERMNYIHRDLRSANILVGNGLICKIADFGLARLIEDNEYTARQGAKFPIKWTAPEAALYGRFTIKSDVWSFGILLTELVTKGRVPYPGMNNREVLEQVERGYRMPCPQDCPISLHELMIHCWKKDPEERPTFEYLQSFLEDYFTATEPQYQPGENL

Row | SMILES | IC50 [1] [µM] | IC50 [2] [µM] | IC50 [3] [µM] | IC50 [4] [µM] | IC50 [5] [µM] | IC50 [6] [µM] | IC50 [7] [µM] | IC50 [8] [µM] | IC50 [9] [µM] | IC50 [10] [µM]
1 | COCCOc1cc(Nc2ncnc(Nc3ccc(C)c(O)c3)n2)ccc1OC [Compound 127] | < 1.01 | > 11.3 | 1.01 to 6.04 | < 1.01 | 1.01 to 6.04 | > 11.3 | < 1.01 | 1.01 to 6.04 | < 1.01 | < 1.01
2 | COc1ccc(Nc2ncnc(Nc3ccc(C)c(O)c3)n2)cc1OC [Compound 119] | < 1.13 | 9.9 to 12.7 | 1.13 to 6.79 | 1.13 to 6.79 | 1.13 to 6.79 | > 12.7 | < 1.13 | 6.79 to 9.9 | < 1.13 | < 1.13
3 | Cc1cccc(Nc2ncnc(Nc3ccc(O)cc3)n2)c1 [Compound 107] | < 1.36 | 1.36 to 8.18 | 8.18 to 11.9 | < 1.36 | 1.36 to 8.18 | 1.36 to 8.18 | < 1.36 | 1.36 to 8.18 | 1.36 to 8.18 | < 1.36
4 | COc1cc(Nc2ncnc(Nc3ccc(C)c(F)c3)n2)cc(OC)c1OC [Compound 300] | 1.04 to 6.23 | 6.23 to 9.08 | 1.04 to 6.23 | < 1.04 | 1.04 to 6.23 | > 11.7 | > 11.7 | < 1.04 | < 1.04 | < 1.04
5 | COc1cc(Nc2ncnc(Nc3ccc(Br)cc3F)n2)cc(OC)c1OC [Compound 41] | 0.888 to 5.33 | 7.77 to 9.99 | > 9.99 | 0.888 to 5.33 | 5.33 to 7.77 | > 9.99 | 0.888 to 5.33 | 0.888 to 5.33 | 0.888 to 5.33 | < 0.888
6 | COc1cc(Nc2ncnc(Nc3ccc(C)c(NS(C)(=O)=O)c3)n2)cc(OC)c1OC [Compound 305] | < 0.869 | > 9.77 | 0.869 to 5.21 | < 0.869 | 0.869 to 5.21 | > 9.77 | 0.869 to 5.21 | 5.21 to 7.6 | < 0.869 | 0.869 to 5.21
7 | C=CCN(c1ccc(Cl)cc1)c1ncnc(Nc2cc(OC)c(OC)c(OC)c2)n1 [Compound 972] | 0.935 to 5.61 | > 10.5 | 0.935 to 5.61 | 0.935 to 5.61 | 0.935 to 5.61 | > 10.5 | 0.935 to 5.61 | 5.61 to 8.18 | < 0.935 | < 0.935
8 | COc1cc(Nc2ncnc(N(C/C=C/c3ccccc3)c3ccc(Cl)cc3)n2)cc(OC)c1OC [Compound 56] | > 8.93 | > 8.93 | > 8.93 | > 8.93 | 4.76 to 6.94 | > 8.93 | 4.76 to 6.94 | 6.94 to 8.93 | > 8.93 | < 0.794
9 | COCCOc1ccc(Nc2ncnc(Nc3ccc(C)c(O)c3)n2)cc1OCCOC [Compound 125] | 0.906 to 5.44 | 5.44 to 7.93 | 7.93 to 10.2 | < 0.906 | 0.906 to 5.44 | > 10.2 | < 0.906 | 0.906 to 5.44 | < 0.906 | 0.906 to 5.44
10 | COc1cc(Nc2ncnc(N3CCCc4ccccc43)n2)cc(OC)c1OC [Compound 609] | < 1.02 | > 11.4 | > 11.4 | < 1.02 | < 1.02 | > 11.4 | < 1.02 | > 11.4 | < 1.02 | < 1.02
11 | COc1cc(Nc2ncnc(Nc3ccc(C)cc3F)n2)cc(OC)c1OC [Compound 937] | 1.04 to 6.23 | > 11.7 | 6.23 to 9.08 | 1.04 to 6.23 | 1.04 to 6.23 | > 11.7 | 9.08 to 11.7 | < 1.04 | < 1.04 | < 1.04
12 | COc1cc(Nc2ncnc(-n3ncc4ccccc43)n2)cc(OC)c1OC [Compound 240] | 1.06 to 6.34 | > 11.9 | > 11.9 | 9.25 to 11.9 | 1.06 to 6.34 | > 11.9 | 1.06 to 6.34 | > 11.9 | < 1.06 | > 11.9
13 | COc1cc(Nc2ncnc(N(CC(=O)O)c3ccc4c(c3)OCO4)n2)cc(OC)c1OC [Compound 319] | > 9.88 | > 9.88 | > 9.88 | > 9.88 | > 9.88 | > 9.88 | > 9.88 | > 9.88 | > 9.88 | 0.878 to 5.27
14 | COc1ccc(Nc2ncnc(N(CC(=O)O)c3ccc4c(c3)OCO4)n2)cc1OC [Compound 320] | > 10.6 | > 10.6 | > 10.6 | > 10.6 | 5.64 to 8.23 | > 10.6 | > 10.6 | > 10.6 | > 10.6 | 0.94 to 5.64
15 | COc1cc(Nc2ncnc(-n3c(=O)[nH]c4ccccc43)n2)cc(OC)c1OC [Compound 325] | 6.09 to 8.87 | > 11.4 | 1.01 to 6.09 | > 11.4 | > 11.4 | > 11.4 | < 1.01 | > 11.4 | < 1.01 | 8.87 to 11.4
16 | COc1cc(Nc2ncnc(Nc3nc4ccccc4n3C)n2)cc(OC)c1OC [Compound 938] | > 11 | > 11 | 5.89 to 8.59 | > 11 | > 11 | > 11 | 0.982 to 5.89 | 5.89 to 8.59 | 0.982 to 5.89 | > 11
17 | COc1ccc(Nc2ncnc(N(C/C=C/c3ccccc3)c3ccc(Cl)cc3)n2)cc1OC [Compound 974] | > 9.49 | > 9.49 | > 9.49 | > 9.49 | 5.06 to 7.38 | > 9.49 | > 9.49 | > 9.49 | > 9.49 | < 0.844
18 | COc1cc(Nc2ncnc(-n3c(NC(C)=O)nc4ccccc43)n2)cc(OC)c1OC [Compound 334] | > 10.3 | 0.919 to 5.51 | > 10.3 | > 10.3 | 8.04 to 10.3 | 5.51 to 8.04 | 0.919 to 5.51 | < 0.919 | 0.919 to 5.51 | > 10.3
19 | COc1cc(Nc2ncnc(Nc3cc(F)ccc3F)n2)cc(OC)c1OC [Compound 316] | 8.99 to 11.6 | > 11.6 | > 11.6 | 8.99 to 11.6 | > 11.6 | > 11.6 | 8.99 to 11.6 | < 1.03 | < 1.03 | 1.03 to 6.16
20 | COc1ccc(Sc2ncnc(Nc3cc(OC)c(OC)c(OC)c3)n2)cc1 [Compound 175] | 0.999 to 5.99 | > 11.2 | > 11.2 | 0.999 to 5.99 | 0.999 to 5.99 | > 11.2 | 5.99 to 8.74 | 0.999 to 5.99 | < 0.999 | > 11.2
21 | COc1cc(Nc2ncnc(-n3ccc4cc(Cl)ccc43)n2)cc(OC)c1OC [Compound 198] | > 10.9 | > 10.9 | > 10.9 | > 10.9 | > 10.9 | > 10.9 | 0.971 to 5.83 | > 10.9 | < 0.971 | > 10.9

Reference: patent publication US7074789B2, “Kinase inhibitors” (Amgen Inc., priority 1999, dated 2006)
